The subject of data set [1] is Mus musculus. Description: Acute toxicity in mouse at 300 mg/kg, po after 24 hrs. The data set is classed as organism-based. As to conditions: in vivo.
The subject of data set [2] is Mus musculus. Nature of the data set: Acute toxicity in mouse at 125 mg/kg, ip after 24 hrs. It is filed as organism-based. As to conditions: in vivo.
Data set [3] concerns the target T1, Amine oxidase [flavin-containing] B (Bos taurus, UniProt P56560).
T1 sequence (P56560 whole entry): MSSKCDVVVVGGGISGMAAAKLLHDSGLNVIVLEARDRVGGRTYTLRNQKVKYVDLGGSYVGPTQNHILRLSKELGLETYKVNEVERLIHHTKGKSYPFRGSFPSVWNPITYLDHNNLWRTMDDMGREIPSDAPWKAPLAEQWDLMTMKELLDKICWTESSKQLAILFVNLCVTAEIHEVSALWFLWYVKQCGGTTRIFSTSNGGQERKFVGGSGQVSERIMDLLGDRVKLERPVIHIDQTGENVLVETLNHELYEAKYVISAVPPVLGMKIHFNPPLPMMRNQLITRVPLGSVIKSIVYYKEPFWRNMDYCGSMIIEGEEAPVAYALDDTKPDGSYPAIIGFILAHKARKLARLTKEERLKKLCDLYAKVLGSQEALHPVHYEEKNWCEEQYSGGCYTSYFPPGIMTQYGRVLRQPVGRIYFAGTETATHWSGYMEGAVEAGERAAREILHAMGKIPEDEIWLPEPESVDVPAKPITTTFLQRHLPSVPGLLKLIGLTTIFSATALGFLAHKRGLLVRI
Description: Inhibition of bovine brain mitochondria MAO-B using benzylamine substrate after 60 mins by fluorimetric method.

Data set [4] deals with T2, Amine oxidase [flavin-containing] A (Bos taurus, UniProt P21398).
T2 sequence (P21398 whole entry): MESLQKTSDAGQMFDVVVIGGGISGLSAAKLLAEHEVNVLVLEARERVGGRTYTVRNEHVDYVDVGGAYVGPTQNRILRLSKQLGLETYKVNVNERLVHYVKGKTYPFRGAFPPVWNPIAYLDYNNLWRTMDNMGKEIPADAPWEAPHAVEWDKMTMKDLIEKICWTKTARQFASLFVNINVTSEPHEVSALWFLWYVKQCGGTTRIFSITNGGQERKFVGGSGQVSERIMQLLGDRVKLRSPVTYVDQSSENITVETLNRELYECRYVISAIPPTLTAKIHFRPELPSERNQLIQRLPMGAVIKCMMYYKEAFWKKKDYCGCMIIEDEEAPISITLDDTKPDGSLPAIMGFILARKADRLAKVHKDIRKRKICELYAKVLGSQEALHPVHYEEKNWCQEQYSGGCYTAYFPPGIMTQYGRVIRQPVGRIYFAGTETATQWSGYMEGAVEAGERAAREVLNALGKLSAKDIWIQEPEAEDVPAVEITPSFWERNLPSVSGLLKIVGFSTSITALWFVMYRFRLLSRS
Description: Inhibition of bovine brain mitochondria MAO-A using serotonin substrate after 60 mins by fluorimetric method.

With `COC(=O)[C@H](Cc1ccccc1)NC(=O)c1ccccc1N`, the Activity result with Mus musculus [1] and in the data set on Mus musculus [2] was “Non-toxic” throughout. The IC50 – broadly, the concentration that gives 50% inhibition – in data set [3] worked out at 680 µM; in data set [4] it was 0.038 µM.
Consider `COC(=O)CCNC(=O)c1ccccc1N`, for which the Activity entry in the data set with Mus musculus [1] and in the data set on Mus musculus [2] was “Non-toxic” in each case. The results for the half-inhibitory concentration (IC50) in data set [3] and in data set [4] were 560 µM and 0.062 µM, respectively.
Consider `COC(=O)CCCNC(=O)c1ccccc1N`, for which the Activity entry in the data set with Mus musculus [1] and in the data set on Mus musculus [2] was “Non-toxic” throughout. In addition, the IC50 in data set [3] came to 460 µM; in data set [4], 0.071 µM.
Consider `COC(=O)CCCCCNC(=O)c1ccccc1N`, for which the Activity entry with Mus musculus [1] and in the data set with Mus musculus [2] was “Non-toxic” each time. The IC50 in data set [3] was 440 µM; in data set [4], 0.056 µM.
Consider `COC(=O)CN1C(=O)c2ccccc2NC1c1ccccc1` (stereo not drawn), for which the Activity entry in the data set on Mus musculus [1] and in the data set with Mus musculus [2] was “Non-toxic” in each case.
For `COC(=O)CN1C(=O)c2ccccc2NC1c1ccc2c(c1)OCO2` (stereo not drawn), the Activity result in the data set with Mus musculus [1] and in the data set on Mus musculus [2] was “Non-toxic” each time. Besides, the IC50 was 740 µM in data set [3] and 0.061 µM in data set [4].
With `COC(=O)CN1C(=O)c2ccccc2NC1c1ccco1` (stereo not drawn), the Activity entry with Mus musculus [1] and in the data set with Mus musculus [2] was “Non-toxic” in each case. Also, the figures for the IC50 in data set [3] and in data set [4] were 380 µM and 0.044 µM, respectively.
As for `COC(=O)CN1C(=O)c2ccccc2NC1c1ccc(Cl)cc1` (stereo not drawn), the Activity entry with Mus musculus [1] and with Mus musculus [2] was “Non-toxic” throughout. For the same molecule, the concentration for half-maximal inhibition (IC50) was determined as 88 µM in data set [3] and 0.0036 µM in data set [4].
On to `COC(=O)CN1C(=O)c2ccccc2NC1c1ccc(OC)cc1` (stereo not drawn), for which the Activity result with Mus musculus [1] and in the data set with Mus musculus [2] was “Non-toxic” throughout. The IC50 in data set [3] was determined as 560 µM; in data set [4] it was 0.048 µM.
With `COC(=O)C(C)N1C(=O)c2ccccc2NC1c1ccccc1` (stereo not drawn), the Activity entry in the data set on Mus musculus [1] and in the data set on Mus musculus [2] was “Non-toxic” each time. Moreover, the IC50 was 460 µM in data set [3] and 0.039 µM in data set [4].
For `COC(=O)C(C)N1C(=O)c2ccccc2NC1c1ccc2c(c1)OCO2` (stereo not drawn), the Activity entry in the data set on Mus musculus [1] and with Mus musculus [2] was “Non-toxic” throughout. Also, the results for the IC50 in data set [3] and in data set [4] were 86 µM and 0.0028 µM, respectively.
`COC(=O)C(C)N1C(=O)c2ccccc2NC1c1ccco1` (stereo not drawn): the Activity entry with Mus musculus [1] and in the data set with Mus musculus [2] was “Non-toxic” each time. The IC50 in data set [3] was 61 µM; in data set [4], 0.0082 µM.
Regarding `COC(=O)C(Cc1ccccc1)N1C(=O)c2ccccc2NC1c1ccco1` (stereo not drawn), the Activity result in the data set with Mus musculus [1] and with Mus musculus [2] was “Non-toxic” each time. Moreover, the half-inhibitory concentration (IC50) is 340 µM in data set [3] and 0.073 µM in data set [4].
For the molecule `COC(=O)C(Cc1ccccc1)N1C(=O)c2ccccc2NC1c1ccc(Cl)cc1` (stereo not drawn), the Activity result in the data set on Mus musculus [1] and in the data set with Mus musculus [2] was “Non-toxic” throughout. Moreover, the IC50 in data set [3] came to 540 µM; in data set [4], 0.042 µM.
Take `NNC(=O)CN1C(=O)c2ccccc2NC1c1ccccc1` (stereo not drawn): the Activity result with Mus musculus [1] and in the data set on Mus musculus [2] was “Non-toxic” each time. Further, the IC50 in data set [3] was 310 µM; in data set [4], 0.038 µM.
Consider `NNC(=O)CN1C(=O)c2ccccc2NC1c1ccc2c(c1)OCO2` (stereo not drawn), for which the Activity result in the data set on Mus musculus [1] and in the data set on Mus musculus [2] was “Non-toxic” in each case. In addition, the IC50 in data set [3] was 83 µM; in data set [4], 0.0021 µM.
As to `NNC(=O)CN1C(=O)c2ccccc2NC1c1ccco1` (stereo not drawn), the Activity entry in the data set with Mus musculus [1] and with Mus musculus [2] was “Non-toxic” throughout. Further, the IC50 in data set [3] amounted to 560 µM; in data set [4] it was 0.036 µM.
On to `NNC(=O)CN1C(=O)c2ccccc2NC1c1ccc(Cl)cc1` (stereo not drawn), for which the Activity entry with Mus musculus [1] and in the data set on Mus musculus [2] was “Non-toxic” throughout. The IC50 in data set [3] was determined as 940 µM; in data set [4], 0.048 µM.
As to `COc1ccc(C2Nc3ccccc3C(=O)N2CC(=O)NN)cc1` (stereo not drawn), the Activity result in the data set with Mus musculus [1] and in the data set with Mus musculus [2] was “Non-toxic” in each case. Also, the figures for the IC50 in data set [3] and in data set [4] were 890 µM and 0.082 µM, respectively.
Turning to `CC(C(=O)NN)N1C(=O)c2ccccc2NC1c1ccco1` (stereo not drawn), the Activity result with Mus musculus [1] and in the data set on Mus musculus [2] was “Non-toxic” in each case. Further, the IC50 in data set [3] was found to be 310 µM; in data set [4] it was 0.032 µM.
As for `NNC(=O)C(Cc1ccccc1)N1C(=O)c2ccccc2NC1c1ccco1` (stereo not drawn), the Activity entry in the data set with Mus musculus [1] and in the data set with Mus musculus [2] was “Non-toxic” in each case. For the same molecule, the IC50 in data set [3] amounted to 220 µM; in data set [4], 0.028 µM.
As for `NNC(=O)C(Cc1ccccc1)N1C(=O)c2ccccc2NC1c1ccc(Cl)cc1` (stereo not drawn), the Activity result in the data set on Mus musculus [1] and in the data set on Mus musculus [2] was “Non-toxic” throughout. Besides, the IC50 in data set [3] turned out to be 120 µM; in data set [4] it was 0.018 µM.
Turning to `COC(=O)CCN1C(=O)c2ccccc2NC1c1ccccc1` (stereo not drawn), the Activity entry with Mus musculus [1] and with Mus musculus [2] was “Non-toxic” throughout. For the same molecule, the IC50 in data set [3] came out at 860 µM; in data set [4], 0.092 µM.
For `COC(=O)CCN1C(=O)c2ccccc2NC1c1ccc2c(c1)OCO2` (stereo not drawn), the Activity result in the data set on Mus musculus [1] and in the data set with Mus musculus [2] was “Non-toxic” throughout. For the same molecule, the IC50 in data set [3] amounted to 170 µM; in data set [4], 0.084 µM.
As to `COC(=O)CCN1C(=O)c2ccccc2NC1c1ccc(Cl)cc1` (stereo not drawn), the Activity result with Mus musculus [1] and in the data set on Mus musculus [2] was “Non-toxic” each time. The IC50 in data set [3] stood at 720 µM; in data set [4], 0.098 µM.
Turning to `COC(=O)CCCN1C(=O)c2ccccc2NC1c1ccccc1` (stereo not drawn), the Activity result in the data set on Mus musculus [1] and in the data set with Mus musculus [2] was “Non-toxic” each time. In addition, the IC50 in data set [3] was 540 µM; in data set [4], 0.063 µM.
Regarding `COC(=O)CCCN1C(=O)c2ccccc2NC1c1ccc2c(c1)OCO2` (stereo not drawn), the Activity entry in the data set with Mus musculus [1] and with Mus musculus [2] was “Non-toxic” in each case. Besides, the figures for the IC50 in data set [3] and in data set [4] were 660 µM and 0.088 µM, respectively.
Take `COC(=O)CCCN1C(=O)c2ccccc2NC1c1ccco1` (stereo not drawn): the Activity result with Mus musculus [1] and with Mus musculus [2] was “Non-toxic” in each case. Moreover, the IC50 in data set [3] stood at 780 µM; in data set [4] it was 0.096 µM.
For the molecule `COC(=O)CCCCCN1C(=O)c2ccccc2NC1c1ccc2c(c1)OCO2` (stereo not drawn), the Activity result in the data set on Mus musculus [1] and in the data set on Mus musculus [2] was “Non-toxic” each time. In addition, the IC50 in data set [3] was 820 µM; in data set [4] it was 0.084 µM.
Take `COC(=O)CCCCCN1C(=O)c2ccccc2NC1c1ccc(Cl)cc1` (stereo not drawn): the Activity entry with Mus musculus [1] and in the data set on Mus musculus [2] was “Non-toxic” each time. The IC50 in data set [3] worked out at 290 µM; in data set [4] it was 0.044 µM.
Consider `COC(=O)CCCCCNC(=O)c1ccccc1/N=C/c1ccccc1`, for which the Activity result with Mus musculus [1] and in the data set on Mus musculus [2] was “Non-toxic” each time. Moreover, the values for the IC50 in data set [3] and in data set [4] were 540 µM and 0.064 µM, respectively.
With `NNC(=O)CCN1C(=O)c2ccccc2NC1c1ccccc1` (stereo not drawn), the Activity entry in the data set with Mus musculus [1] and with Mus musculus [2] was “Non-toxic” throughout. Moreover, the IC50 in data set [3] is 210 µM; in data set [4], 0.016 µM.
As to `NNC(=O)CCN1C(=O)c2ccccc2NC1c1ccc2c(c1)OCO2` (stereo not drawn), the Activity entry with Mus musculus [1] and in the data set on Mus musculus [2] was “Non-toxic” each time. Also, the IC50 in data set [3] turned out to be 380 µM; in data set [4] it was 0.032 µM.
As for `NNC(=O)CCN1C(=O)c2ccccc2NC1c1ccc(Cl)cc1` (stereo not drawn), the Activity entry with Mus musculus [1] and in the data set with Mus musculus [2] was “Non-toxic” each time. Moreover, the IC50 came to 420 µM in data set [3] and 0.051 µM in data set [4].
With `NNC(=O)CCCN1C(=O)c2ccccc2NC1c1ccccc1` (stereo not drawn), the Activity result in the data set on Mus musculus [1] and in the data set with Mus musculus [2] was “Non-toxic” in each case. Also, the IC50 in data set [3] came to 370 µM; in data set [4], 0.047 µM.
Regarding `NNC(=O)CCCN1C(=O)c2ccccc2NC1c1ccc2c(c1)OCO2` (stereo not drawn), the Activity result with Mus musculus [1] and in the data set on Mus musculus [2] was “Non-toxic” throughout. For the same molecule, the values for the IC50 in data set [3] and in data set [4] were 420 µM and 0.082 µM, respectively.
With `NNC(=O)CCCN1C(=O)c2ccccc2NC1c1ccco1` (stereo not drawn), the Activity entry in the data set on Mus musculus [1] and in the data set with Mus musculus [2] was “Non-toxic” throughout. The figures for the IC50 in data set [3] and in data set [4] were 270 µM and 0.036 µM, respectively.
`C#CCN(C)CCCOc1ccc(Cl)cc1Cl` [CLORGILINE]: the Activity result in the data set with Mus musculus [1] and in the data set with Mus musculus [2] was “Non-toxic” each time.

Source of the values: ChEMBL document CHEMBL3585336, “Synthesis and evaluation of quinazoline amino acid derivatives as mono amine oxidase (MAO) inhibitors” (Bioorg Med Chem, 2015).
